Assay results reported in patent US20070141092A1, “BIGUANIDE COMPOSITION AND METHOD OF TREATMENT AND PREVENTION OF VIRAL INFECTIONS” (priority 2005, published 2007).

Columns and labels:
Assay type in all cases: cell-based
[1] = test system: Herpes simplex virus type 1; test: Viral Suspension Assay, HSV-1 (CPE on rabbit kidney indicator cells)
Description: (§1) The Viral Suspension Assay was used to evaluate the antiviral properties of Alexidine against Herpes simplex virus type 1 when exposed in suspension for 1, 2, 5, and 10 minutes. The presence of virus (infectivity) was determined by monitoring the virus specific cytopathic effect (CPE) on an appropriate indicator cell line, rabbit kidney. Results are reported as Percent (%) Reduction in virus titer as compared to the corresponding virus control titer (Table 1). The titer of the virus controls were 7.5 log10 following the one minute exposure time; 7.0 log10 following the two minute exposure time; and 7.75 log10 following both the five and ten minute exposure times.

Adenovirus Type-4 = test: Viral Suspension Assay, Adenovirus Type-4; details: both 30 ppm and 99 ppm
Description: as §1, with “Adenovirus Type-4, Adenovirus Type-8 and Adenovirus Type-19 and Cytomegalovirus” for “Herpes simplex virus type 1”

Adenovirus Type-8 = test: Viral Suspension Assay, Adenovirus Type-8; details: both 30 ppm and 99 ppm
Description: as §1, with “Adenovirus Type-4, Adenovirus Type-8 and Adenovirus Type-19 and Cytomegalovirus” for “Herpes simplex virus type 1”

Cytomegalovirus = test: Viral Suspension Assay, Cytomegalovirus; details: both 30 ppm and 99 ppm
Description: as §1, with “Adenovirus Type-4, Adenovirus Type-8 and Adenovirus Type-19 and Cytomegalovirus” for “Herpes simplex virus type 1”

CCCCC(CC)CNC(=N)NC(=N)NCCCCCCNC(=N)NC(=N)NCC(CC)CCCC (centres unmarked) [Alexidine, 1,1′-hexamethylene-bis[5-(2-ethylhexyl)biguanide]]
Effectiveness against herpes simplex type-1 virus (in words) ([1]; both 30 ppm and 99 ppm): effective agents | Overall activity against Herpes Simplex-1 (in words) ([1]; summary statement): potent antimicrobial agent | Effectiveness against Adenovirus Type-4 (in words) (Adenovirus Type-4): somewhat effective | Effectiveness against Adenovirus Type-8 (in words) (Adenovirus Type-8): somewhat effective | Effectiveness against Cytomegalovirus (in words) (Cytomegalovirus): somewhat effective
